Assays:
[1] = Drug localization in nucleus of human LS180 cells at 1 uM after 2 hrs by DAPI-fluoresecence based confocal laser microscopy; assay type: ADME, subcellular; settings: ls180, 2 h
[2] = Drug uptake in tumor of nude BALB/c mouse xenografted with human LS180 cells assessed as increase in mean fluorescence intensity at 1 mg/kg, iv measured at 0.25 to 72 hrs post administration by fluorescence-based imaging analysis; assay type: ADME, organism-based, Neoplasm; settings: in vivo
[3] = Drug localization in nucleus of human SW480 cells at 1 uM after 2 hrs by DAPI-fluoresecence based confocal laser microscopy; assay type: ADME, subcellular; settings: sw480, 2 h
[4] = Octanol water partition coefficient, log P of the compound by reverse-phase HPLC method; assay type: physicochemical
[5] = Retention time of the compound by reverse-phase HPLC method; assay type: physicochemical
[6] = Drug uptake in human SW480 cells after 24 hrs by fluorospectrometry; assay type: ADME, cell-based; settings: sw480, 24 h
[7] = Drug uptake in tumor of nude BALB/c mouse xenografted with human SW480 cells at 1 mg/kg, iv measured up to 22 days post administration by fluorescence-based imaging analysis; assay type: ADME, organism-based, Neoplasm; settings: in vivo, 528 h
[8] = Drug uptake in heart of nude BALB/c mouse xenografted with human LS180 cells at 1 mg/kg, iv measured at 3 to 9 days post administration by DAPI-based confocal laser microscopic analysis; assay type: ADME, organism-based; settings: in vivo
[9] = Drug uptake in tumor of nude BALB/c mouse xenografted with human LS180 cells at 1 mg/kg, iv measured at 3 days post administration by DAPI-based confocal laser microscopic analysis; assay type: ADME, organism-based, Neoplasm; settings: in vivo, 72 h
[10] = Drug uptake in tumor of nude BALB/c mouse xenografted with human LS180 cells at 1 mg/kg, iv measured after 9 days post administration by fluorescence-based imaging analysis; assay type: ADME, organism-based, Neoplasm; settings: in vivo, 216 h
[11] = Drug uptake in human LS180 cells after 24 hrs by fluorospectrometry; assay type: ADME, cell-based; settings: ls180, 24 h
[12] = Drug uptake in liver of nude BALB/c mouse xenografted with human LS180 cells at 1 mg/kg, iv measured at 3 days post administration by DAPI-based confocal laser microscopic analysis; assay type: ADME, organism-based; settings: in vivo, 72 h
[13] = Drug uptake in tumor of human SW480 cells xenografted in nude BALB/c mouse assessed as increase in mean fluorescence intensity at 1 mg/kg, iv measured at 0.25 to 72 hrs post administration by fluorescence-based imaging analysis; assay type: ADME, organism-based, Neoplasm; settings: in vivo
[14] = Drug uptake in kidneys of nude BALB/c mouse xenografted with human LS180 cells at 1 mg/kg, iv measured at 3 days post administration by DAPI-based confocal laser microscopic analysis; assay type: ADME, organism-based, Kidney; settings: in vivo, 72 h
[15] = Drug uptake in tumor of nude BALB/c mouse xenografted with human LS180 cells at 1 mg/kg, iv measured at 48 hrs post administration by fluorescence-based imaging analysis; assay type: ADME, organism-based, Neoplasm; settings: in vivo
[16] = Drug uptake in tumor of nude BALB/c mouse xenografted with human LS180 cells at 1 mg/kg, iv measured at 9 days post administration by DAPI-based confocal laser microscopic analysis; assay type: ADME, organism-based, Neoplasm; settings: in vivo, 216 h
[17] = Drug uptake in spleen of nude BALB/c mouse xenografted with human LS180 cells at 1 mg/kg, iv measured at 3 to 9 days post administration by DAPI-based confocal laser microscopic analysis; assay type: ADME, organism-based; settings: in vivo
[18] = Drug uptake in tumor of nude BALB/c mouse xenografted with human LS180 cells assessed as increase in mean fluorescence intensity at 1 mg/kg, iv measured at 3 to 72 hrs post administration by fluorescence-based imaging analysis; assay type: ADME, organism-based, Neoplasm; settings: in vivo
[19] = Drug uptake in human LS180 cells up to 1 uM in presence of 4 degC temperature for 2 hrs by fluorospectrometry; assay type: ADME, cell-based; settings: ls180, 2 h
[20] = Drug uptake in nude BALB/c mouse body cavity xenografted with human LS180 cells assessed as increase in mean fluorescence intensity at 1 mg/kg, iv measured at 1 hr post administration by fluorescence-based imaging analysis; assay type: ADME, organism-based; settings: in vivo
[21] = Drug uptake in lungs of nude BALB/c mouse xenografted with human LS180 cells at 1 mg/kg, iv measured at 3 to 9 days post administration by DAPI-based confocal laser microscopic analysis; assay type: ADME, organism-based, Lung; settings: in vivo
[22] = Drug uptake in tumor of nude BALB/c mouse xenografted with human LS180 cells at 1 mg/kg, iv measured at 2 hrs post administration by fluorescence-based imaging analysis; assay type: ADME, organism-based, Neoplasm; settings: in vivo
[23] = Drug uptake in nude BALB/c mouse body cavity xenografted with human LS180 cells assessed as increase in mean fluorescence intensity at 1 mg/kg, iv measured at 24 hrs post administration by fluorescence-based imaging analysis; assay type: ADME, organism-based; settings: in vivo
[24] = Drug uptake in human SW480 cells xenografted in nude BALB/c mouse at 1 mg/kg, iv measured after 9 days post administration by fluorescence-based imaging analysis; assay type: ADME, organism-based, Neoplasm; settings: in vivo, 216 h
[25] = Drug uptake in tumor of nude BALB/c mouse xenografted with human LS180 cells assessed as mean fluorescence intensity at 1 mg/kg, iv measured at 72 hrs post administration by fluorescence-based imaging analysis; assay type: ADME, organism-based, Neoplasm; settings: in vivo
[26] = Drug uptake in human SW480 cells up to 1 uM after 24 hrs by fluorospectrometry; assay type: ADME, cell-based; settings: sw480, 24 h
Mus musculus [27] = assay: Drug uptake in non-tumor tissue area of nude BALB/c mouse xenografted with human LS180 cells assessed as increase in mean fluorescence intensity at 1 mg/kg, iv measured at 5 mins post administration by fluorescence-based imaging analysis; assay type: ADME, organism-based; settings: in vivo
[28] = Drug uptake in human LS180 cells up to 1 uM after 24 hrs by fluorospectrometry; assay type: ADME, cell-based; settings: ls180, 24 h
[29] = Drug uptake in tumor of nude BALB/c mouse xenografted with human LS180 cells assessed as increase in mean fluorescence intensity at 1 mg/kg, iv measured at 6 hrs post administration by fluorescence-based imaging analysis; assay type: ADME, organism-based, Neoplasm; settings: in vivo
Mus musculus [30] = assay: Drug uptake in non-tumor tissue area of nude BALB/c mouse xenografted with human LS180 cells assessed as increase in mean fluorescence intensity at 1 mg/kg, iv measured at 24 hrs post administration by fluorescence-based imaging analysis; assay type: ADME, organism-based; settings: in vivo
[31] = Drug uptake in tumor of nude BALB/c mouse xenografted with human LS180 cells assessed as increase in mean fluorescence intensity at 1 mg/kg, iv measured at 3 hrs post administration by fluorescence-based imaging analysis; assay type: ADME, organism-based, Neoplasm; settings: in vivo
[32] = Drug uptake in tumor of nude BALB/c mouse xenografted with human LS180 cells assessed as increase in mean fluorescence intensity at 1 mg/kg, iv measured at 48 hrs post administration by fluorescence-based imaging analysis; assay type: ADME, organism-based, Neoplasm; settings: in vivo
[33] = Drug uptake in tumor of nude BALB/c mouse xenografted with human LS180 cells at 1 mg/kg, iv measured after 4 days post administration by fluorescence-based imaging analysis; assay type: ADME, organism-based, Neoplasm; settings: in vivo, 96 h

Row | SMILES | Drug uptake [1] | Drug uptake [3] | logP [4] | Retention_time [5] [min] | Drug uptake [8] | Drug uptake [9] | Drug uptake [10] | Drug uptake [12] | Drug uptake [13] | Drug uptake [14] | Drug uptake [15] [%] | Drug uptake [16] | Drug uptake [17] | Drug uptake [19] | Drug uptake [21] | Drug uptake [22] | Drug uptake [23] | Drug uptake [26] | Drug uptake [28] | further results
1 | O=C(O)c1ccccc1-c1c2ccc(=O)cc-2oc2cc(O)ccc12 | Not Active | Not Active |  |  |  |  |  |  |  |  |  |  |  |  |  |  |  |  |  | Drug uptake [2]: Not Active
2 | CN(C)CCCNC(=O)CCNC(=O)c1cc(NC(=O)c2cc(NC(=O)CCNC(=O)c3cc(NC(=O)c4cc(NC(=O)c5cc(NC(=O)CCCNC(=O)c6cc(NC(=O)c7cc(NC(=O)c8cc(NC(=O)CCNC(=O)c9nc(NC(=O)c%10cc(NC(=O)CCNC(=S)Nc%11ccc(-c%12c%13ccc(=O)cc-%13oc%13cc(O)ccc%12%13)c(C(=O)O)c%11)cn%10C)cn9C)cn8C)cn7C)cn6C)cn5C)cn4C)cn3C)cn2C)cn1C | Active | Active | 1.5 | 11.73 | Not Active | Active | Active | Active | Active | Active | 50 | Active | Not Active | Active | Not Active | Active | Not Active |  |  | Drug uptake [6]: Dose-dependent effect; Drug uptake [7]: Active; Drug uptake [11]: Dose-dependent effect; Drug uptake [18]: Active; Drug uptake [20]: Active; Drug uptake [24]: Active
3 | CN(C)CCCNC(=O)CCNC(=O)c1cc(NC(=O)c2cc(NC(=O)CCNC(=O)c3cc(NC(=O)c4cc(NC(=O)c5cc(NC(=O)CCCNC(=O)c6cc(NC(=O)c7cc(NC(=O)c8cc(NC(=O)CCNC(=O)c9nc(NC(=O)c%10nc(NC(=O)CCNC(=S)Nc%11ccc(-c%12c%13ccc(=O)cc-%13oc%13cc(O)ccc%12%13)c(C(=O)O)c%11)cn%10C)cn9C)cn8C)cn7C)cn6C)cn5C)cn4C)cn3C)cn2C)cn1C |  |  | 1.46 | 11.4 |  |  |  |  |  |  |  |  |  |  |  |  |  |  |  | 

The next lines start with results.

Row | Drug uptake [1] | Drug uptake [3] | logP [4] | Retention_time [5] [min] | Drug uptake [8] | Drug uptake [9] | Drug uptake [10] | Drug uptake [12] | Drug uptake [13] | Drug uptake [14] | Drug uptake [15] [%] | Drug uptake [16] | Drug uptake [17] | Drug uptake [19] | Drug uptake [21] | Drug uptake [22] | Drug uptake [23] | Drug uptake [26] | Drug uptake [28] | SMILES | further results
4 |  |  | 1.36 | 10.48 |  |  |  |  |  |  |  |  |  |  |  |  |  |  |  | CN(C)CCCNC(=O)CCNC(=O)c1cc(NC(=O)c2cc(NC(=O)CCNC(=O)c3cc(NC(=O)c4cc(NC(=O)c5cc(NC(=O)CCCNC(=O)c6cc(NC(=O)c7nc(NC(=O)c8nc(NC(=O)CCNC(=O)c9nc(NC(=O)c%10nc(NC(=O)CCNC(=S)Nc%11ccc(-c%12c%13ccc(=O)cc-%13oc%13cc(O)ccc%12%13)c(C(=O)O)c%11)cn%10C)cn9C)cn8C)cn7C)cn6C)cn5C)cn4C)cn3C)cn2C)cn1C | 
5 | Active | Active | 1.42 | 10.97 | Not Active | Active | Not Active | Active | Active | Active | 50 | Not Active | Not Active |  | Not Active | Active |  | Active | Active | CN(C)CCCNC(=O)CCNC(=O)c1cc(NC(=O)c2cc(NC(=O)CCNC(=O)c3cc(NC(=O)c4cc(NC(=O)c5cc(NC(=O)CCCNC(=O)c6cc(NC(=O)c7cc(NC(=O)c8nc(NC(=O)CCNC(=O)c9nc(NC(=O)c%10nc(NC(=O)CCNC(=S)Nc%11ccc(-c%12c%13ccc(=O)cc-%13oc%13cc(O)ccc%12%13)c(C(=O)O)c%11)cn%10C)cn9C)cn8C)cn7C)cn6C)cn5C)cn4C)cn3C)cn2C)cn1C | Drug uptake [25]: Active; Drug uptake (Mus musculus [27]): Active; Drug uptake [29]: Active; Drug uptake (Mus musculus [30]): Not Active
6 | Active | Active | 1.19 | 8.86 | Not Active | Active |  | Active | Active | Active | 50 | Not Active | Not Active | Not Active | Not Active | Active | Not Active | Active | Active | CN(C)CCCNC(=O)CCNC(=O)c1cc(NC(=O)c2cc(NC(=O)CCNC(=O)c3cc(NC(=O)c4cc(NC(=O)c5cc(NC(=O)CCCNC(=O)c6nc(NC(=O)c7nc(NC(=O)c8nc(NC(=O)CCNC(=O)c9nc(NC(=O)c%10nc(NC(=O)CCNC(=S)Nc%11ccc(-c%12c%13ccc(=O)cc-%13oc%13cc(O)ccc%12%13)c(C(=O)O)c%11)cn%10C)cn9C)cn8C)cn7C)cn6C)cn5C)cn4C)cn3C)cn2C)cn1C | Drug uptake [31]: Active; Drug uptake [32]: Not Active; Drug uptake [33]: Not Active

Source: ChEMBL document CHEMBL4118118, “Hydrophobic structure of hairpin ten-ring pyrrole-imidazole polyamides enhances tumor tissue accumulation/retention in vivo” (Bioorg Med Chem, 2018)
